The experiment deals with T1, FAAH (Rattus norvegicus, UniProt P97612).
T1 construct: Preparation of Rat Brain Membranes Preparations (FAAH Enzyme Solution); from tissue; host or cells: rat cerebrum (brain membrane preparation)
T1 sequence (P97612 1-579): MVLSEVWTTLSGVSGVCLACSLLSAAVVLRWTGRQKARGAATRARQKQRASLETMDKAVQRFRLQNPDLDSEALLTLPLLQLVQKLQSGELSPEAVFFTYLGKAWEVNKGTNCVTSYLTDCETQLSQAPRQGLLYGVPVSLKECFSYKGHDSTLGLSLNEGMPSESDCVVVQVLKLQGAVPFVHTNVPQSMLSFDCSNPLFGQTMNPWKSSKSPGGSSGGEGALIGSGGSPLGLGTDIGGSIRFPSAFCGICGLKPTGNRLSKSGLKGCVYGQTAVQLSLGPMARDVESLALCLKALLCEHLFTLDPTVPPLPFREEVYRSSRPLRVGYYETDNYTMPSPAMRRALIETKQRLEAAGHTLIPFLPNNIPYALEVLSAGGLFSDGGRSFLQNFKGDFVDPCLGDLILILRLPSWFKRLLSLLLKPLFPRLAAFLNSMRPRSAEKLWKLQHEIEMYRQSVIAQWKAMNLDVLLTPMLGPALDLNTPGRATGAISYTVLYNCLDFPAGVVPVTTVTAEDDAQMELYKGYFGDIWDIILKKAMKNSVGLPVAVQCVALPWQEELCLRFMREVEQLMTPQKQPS
The experiment in a line: Determination of FAAH inhibitory activity in rat (rat brain membrane preparations, [3H]-anandamide hydrolysis). It is filed as biochemical. The settings on record: rat brain membrane preparations; for IC50: read-out: FAAH Inhibition IC50. The method in brief: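 Compounds tested from 0.1 nM to 1 μM to derive IC50 against FAAH hydrolysis in rat brain membrane preparations (100 μg/mL). A 10-min 37 °C preincubation was followed by 10 min with [3H]-anandamide (2 nM) mixed with 2 μM unlabelled anandamide. Radioactive ethanolamine was extracted into the water/methanol layer and counted.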

Setting [1] is: 100 nM test substance, read-out: FAAH Inhibition, Inhibition Rate at 100 nM.
[2] abbreviates: at 100 nM, read-out: FAAH Inhibition Inhibition Rate at 100 nM.

These results are taken from patent US8735406B2, “8-oxodihydropurine derivative” (Dainippon Sumitomo Pharma Co., Ltd., priority 2009, dated 2014).

Like-named read-outs stand apart in the source and are kept apart here.

Broadly, the inhibition is the drop in the measured response relative to a control, in per cent. For orientation: IC50 means the point on the concentration scale where inhibition reaches its midpoint.

Take `COCc1ncc2c(n1)n(C)c(=O)n2C(=O)N1CC[C@H](Oc2ccc(C)cc2)C1` [Example 484, 2-(Methoxymethyl)-9-methyl-7-{[(3S)-3-(4-methylphenoxy)pyrrolidin-1-yl]carbonyl}-7,9-dihydro-8H-purine-8-one]: the inhibition at 0.1 µM under setting [1] was determined as 86%. In addition, the IC50 (test substance 0.1 nM to 1 μM) is 9 nM.
The corresponding values for `COCc1ncc2c(n1)n(C)c(=O)n2C(=O)N1CC[C@H](Oc2cccc(C)c2)C1` [Example 485, 2-(Methoxymethyl)-9-methyl-7-{[(3S)-3-(3-methylphenoxy)pyrrolidin-1-yl]carbonyl}-7,9-dihydro-8H-purine-8-one] are 112% and 3 nM.
On to `COCc1ncc2c(n1)n(C)c(=O)n2C(=O)N1CC[C@H](Oc2ccccc2C)C1` [Example 486, 2-(Methoxymethyl)-9-methyl-7-{[(3S)-3-(2-methylphenoxy)pyrrolidin-1-yl]carbonyl}-7,9-dihydro-8H-purine-8-one], for which, under setting [1], the inhibition at 0.1 µM was determined as 113%. The IC50 (test substance 0.1 nM to 1 μM) turned out to be 2 nM.
`COCc1ncc2c(n1)n(C)c(=O)n2C(=O)N1CC[C@@H](Oc2cccc(Cl)c2)C1` [Example 487, 7-{[(3R)-3-(3-Chlorophenoxy)pyrrolidin-1-yl]carbonyl}-2-(methoxymethyl)-9-methyl-7,9-dihydro-8H-purine-8-one]: the inhibition at 0.1 µM under setting [1] came to 99%. Moreover, the IC50 (test substance 0.1 nM to 1 μM) was 15 nM.
The corresponding values for `COCc1ncc2c(n1)n(C)c(=O)n2C(=O)N1CC[C@@H](Oc2ccccc2)C1` [Example 488, 2-(Methoxymethyl)-9-methyl-7-{[(3R)-3-phenoxypyrrolidin-1-yl]carbonyl}-7,9-dihydro-8H-purine-8-one] are 74% and 43 nM.
In the case of `COCc1ncc2c(n1)n(C)c(=O)n2C(=O)N1CC[C@H](Oc2ccc(Cl)cc2)C1` [Example 489, 7-{[(3S)-3-(4-Chlorophenoxy)pyrrolidin-1-yl]carbonyl}-2-(methoxymethyl)-9-methyl-7,9-dihydro-8H-purine-8-one], the inhibition at 0.1 µM under setting [1] is 98%. Besides, where the note is “test substance 0.1 nM to 1 μM”, the IC50 is 1 nM.
As to `COCc1ncc2c(n1)n(C)c(=O)n2C(=O)N1CC[C@H](Oc2cccc(Cl)c2)C1` [Example 490, 7-{[(3S)-3-(3-Chlorophenoxy)pyrrolidin-1-yl]carbonyl}-2-(methoxymethyl)-9-methyl-7,9-dihydro-8H-purine-8-one], the inhibition at 0.1 µM under setting [1] came to 97%. Also, the IC50 (test substance 0.1 nM to 1 μM) is 2 nM.
Regarding `COCc1ncc2c(n1)n(C)c(=O)n2C(=O)N1CC[C@H](Oc2ccccc2Cl)C1` [Example 491, 7-{[(3S)-3-(2-Chlorophenoxy)pyrrolidin-1-yl]carbonyl}-2-(methoxymethyl)-9-methyl-7,9-dihydro-8H-purine-8-one], the inhibition at 0.1 µM under setting [1] worked out at 100%. The IC50 (test substance 0.1 nM to 1 μM) came to 2 nM.
The corresponding values for `COCc1ncc2c(n1)n(C)c(=O)n2C(=O)N1CC(COc2ccc(F)cc2)C1` [Example 492, 7-({3-[(4-Fluorophenoxy)methyl]azetidin-1-yl}carbonyl)-2-(methoxymethyl)-9-methyl-7,9-dihydro-8H-purine-8-one] are 103% and 2 nM.
As to `CN(C)C(=O)n1c(=O)n(C)c2cnc(CCc3ccc(OC(F)F)cc3)nc21` [Example 493, 2-{2-[4-(difluoromethoxy)phenyl]ethyl}-N,N,7-trimethyl-8-oxo-7,8-dihydro-9H-purine-9-carboxamide], under setting [1], the inhibition at 0.1 µM was found to be 79%. The IC50 (test substance 0.1 nM to 1 μM) stood at 27 nM.
On the same counts, the results for `Cc1ccc(CCc2ncc3c(n2)n(C(=O)N(C)C)c(=O)n3C)cc1` [Example 494, N,N,7-Trimethyl-2-[2-(4-methylphenyl)ethyl]-8-oxo-7,8-dihydro-9H-purine-9-carboxamide] are 98% and 11 nM.
As for `CN(C)C(=O)n1c(=O)n(C)c2cnc(CCc3cc(F)cc(F)c3)nc21` [Example 497, 2-[2-(3,5-Difluorophenyl)ethyl]-N,N,7-trimethyl-8-oxo-7,8-dihydro-9H-purine-9-carboxamide], the “FAAH Inhibition, Inhibition Rate at 100 nM” value (100 nM test substance, 0.1 µM) came to 94%. For the same molecule, for the setting “test substance 0.1 nM to 1 μM”, the IC50 came out at 25 nM.
As to `CN(C)C(=O)n1c(=O)n(C)c2cnc(CCc3ccc(F)cc3F)nc21` [Example 506, 2-[2-(2,4-Difluorophenyl)ethyl]-N,N,7-trimethyl-8-oxo-7,8-dihydro-9H-purine-9-carboxamide], the inhibition at 0.1 µM under setting [1] stood at 94%. Further, the half-maximal inhibitory concentration (IC50) (test substance 0.1 nM to 1 μM) was 28 nM.
The corresponding values for `CN(C)C(=O)n1c(=O)n(C)c2cnc(CCc3cccc(OCC(F)F)c3)nc21` [Example 530, 2-{2-[3-(2,2-Difluoroethoxy)phenyl]ethyl}-N,N,7-trimethyl-8-oxo-7,8-dihydro-9H-purine-9-carboxamide] are 66% and 52 nM.
For the molecule `CN(C)C(=O)n1c(=O)n(C)c2cnc(CCc3ccc(F)cc3)nc21` [Example 533, 2-[2-(4-Fluorophenyl)ethyl]-N,N,7-trimethyl-8-oxo-7,8-dihydro-9H-purine-9-carboxamide], the inhibition at 0.1 µM under setting [1] amounted to 53%. In addition, under “test substance 0.1 nM to 1 μM”, the IC50 worked out at 99 nM.
On to `CN(C)C(=O)n1c(=O)n(C)c2cnc(CCc3ccc(OCC(F)F)cc3)nc21` [Example 538, 2-{2-[4-(2,2-Difluoroethoxy)phenyl]ethyl}-N,N,7-trimethyl-8-oxo-7,8-dihydro-9H-purine-9-carboxamide], for which the inhibition at 0.1 µM under setting [1] amounted to 51%.
Consider `CN(C)C(=O)n1c(=O)n(C)c2cnc(CCc3ccc(C(F)(F)F)cc3)nc21` [Example 540, N,N,7-Trimethyl-8-oxo-2-{2-[4-(trifluoromethyl)phenyl]ethyl}-7,8-dihydro-9H-purine-9-carboxamide], for which, under setting [1], the inhibition at 0.1 µM was 88%. For the same molecule, the IC50 (test substance 0.1 nM to 1 μM) amounted to 17 nM.
The corresponding values for `CN(C)C(=O)n1c(=O)n(C)c2cnc(CCc3cccc(OCC(F)(F)F)c3)nc21` [Example 552, N,N,7-Trimethyl-8-oxo-2-{2-[3-(2,2,2-trifluoroethoxy)phenyl]ethyl}-7,8-dihydro-9H-purine-9-carboxamide] are 98% and 15 nM.
For the molecule `CN(C)C(=O)n1c(=O)n(C)c2cnc(CCc3ccc(OCC(F)(F)F)cc3)nc21` [Example 553, N,N,7-Trimethyl-8-oxo-2-{2-[4-(2,2,2-trifluoroethoxy)phenyl]ethyl}-7,8-dihydro-9H-purine-9-carboxamide], the inhibition at 0.1 µM under setting [1] was determined as 97%. For the same molecule, the half-maximal inhibitory concentration (IC50) (test substance 0.1 nM to 1 μM) was 9 nM.
On the same counts, the results for `Cn1c(=O)n(C(=O)N2CCC2)c2nc(CCc3ccc(C(F)F)cc3)ncc21` [Example 576, 9-(Azetidin-1-ylcarbonyl)-2-{2-[4-(difluoromethyl)phenyl]ethyl}-7-methyl-7,9-dihydro-8H-purine-8-one] are 110% and 10 nM.
The corresponding values for `Cn1c(=O)n(C(=O)N2CCC2)c2nc(CCc3cc(F)cc(F)c3)ncc21` [Example 580, 9-(Azetidin-1-ylcarbonyl)-2-[2-(3,5-difluorophenyl)ethyl]-7-methyl-7,9-dihydro-8H-purine-8-one] are 81% and 25 nM.
The corresponding values for `Cn1c(=O)n(C(=O)N2CCC2)c2nc(CCc3ccccc3F)ncc21` [Example 583, 9-(Azetidin-1-ylcarbonyl)-2-[2-(2-fluorophenyl)ethyl]-7-methyl-7,9-dihydro-8H-purine-8-one] are 87% and 94 nM.
`Cn1c(=O)n(C(=O)N2CCC2)c2nc(CCc3ccc(F)cc3)ncc21` [Example 587, 9-(Azetidin-1-ylcarbonyl)-2-[2-(4-fluorophenyl)ethyl]-7-methyl-7,9-dihydro-8H-purine-8-one]: under setting [1], the inhibition at 0.1 µM stood at 68%. For the setting “test substance 0.1 nM to 1 μM”, the IC50 is 51 nM.
Take `Cn1c(=O)n(C(=O)N2CCC2)c2nc(CCc3ccc(OCC(F)F)cc3)ncc21` [Example 593, 9-(Azetidin-1-ylcarbonyl)-2-{2-[4-(2,2-difluoroethoxy)phenyl]ethyl}-7-methyl-7,9-dihydro-8H-purine-8-one]: the inhibition at 0.1 µM under setting [1] was 58%. Further, under “test substance 0.1 nM to 1 μM”, the IC50 is 59 nM.
Turning to `Cn1c(=O)n(C(=O)N2CCC2)c2nc(CCc3cccc(OCC(F)(F)F)c3)ncc21` [Example 612, 9-(Azetidin-1-ylcarbonyl)-7-methyl-2-{2-[3-(2,2,2-trifluoroethoxy)phenyl]ethyl}-7,9-dihydro-8H-purine-8-one], the IC50 turned out to be 9 nM. Also, the inhibition at 0.1 µM under setting [2] was determined as 96%.
For `Cn1c(=O)n(C(=O)N2CCC2)c2nc(CCc3ccc(OCC(F)(F)F)cc3)ncc21` [Example 613, 9-(Azetidin-1-ylcarbonyl)-7-methyl-2-{2-[4-(2,2,2-trifluoroethoxy)phenyl]ethyl}-7,9-dihydro-8H-purine-8-one], the IC50 was found to be 12 nM. Further, under setting [2], the inhibition at 0.1 µM was 95%.
